# Assay results: patent US8431563B2 (priority 2010, dated 2013)
# Tests used:
# [1] = target: T1, interaction between glucokinase (GK) and glucokinase regulatory protein (GKRP) (Homo sapiens, UniProt Q14397); assay: biochemical; format: binding; conditions: avi-tagged GKRP, GK-fluorescein, AlphaScreen beads; read-out: GK-GKRP IC50 (Binding)
# T1 sequence (Q14397 1-625): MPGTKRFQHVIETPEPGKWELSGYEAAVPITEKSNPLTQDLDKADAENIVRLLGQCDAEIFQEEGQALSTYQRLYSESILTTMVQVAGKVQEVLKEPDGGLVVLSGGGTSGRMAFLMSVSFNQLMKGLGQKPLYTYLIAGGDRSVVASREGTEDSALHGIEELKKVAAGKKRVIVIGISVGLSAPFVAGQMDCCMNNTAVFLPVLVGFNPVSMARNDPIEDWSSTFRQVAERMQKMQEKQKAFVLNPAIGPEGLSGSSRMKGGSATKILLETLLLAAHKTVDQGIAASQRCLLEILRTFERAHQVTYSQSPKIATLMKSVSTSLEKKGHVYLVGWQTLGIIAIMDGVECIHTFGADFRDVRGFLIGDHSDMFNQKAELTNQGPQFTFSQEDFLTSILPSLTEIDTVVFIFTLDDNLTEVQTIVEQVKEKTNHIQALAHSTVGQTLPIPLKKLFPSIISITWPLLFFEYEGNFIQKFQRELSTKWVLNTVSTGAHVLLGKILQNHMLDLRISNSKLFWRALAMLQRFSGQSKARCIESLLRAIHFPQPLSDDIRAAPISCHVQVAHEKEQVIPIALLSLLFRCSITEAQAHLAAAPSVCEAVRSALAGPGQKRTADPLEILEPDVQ
# Outline: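 Measures direct GK–GKRP binding in 20 mM Tris pH 7.5 containing 1 μM sorbitol-6-phosphate, 0.05% BSA and 1 mM DTT. Compound and avi-tagged GKRP sit 20 min at room temperature before GK-fluorescein addition (6 nM in the added buffer); read after 2 h dark incubation at room temperature.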
# [2] = target: T2, GKRP (Glucokinase Regulatory Protein) with human His-hepatic GK (Homo sapiens, UniProt Q14397); assay: biochemical; conditions: 13C-glucose-6-phosphate formation; 280 nM GKRP (10×), 30 nM GK (5×); read-out: GK-GKRP EC50 (LC MS/MS-2)
# T2 sequence (Q14397 1-625): T1 sequence (Q14397 1-625)
# Outline: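 Product formation, 13C-glucose-6-phosphate from 13C-glucose, was measured directly by LC MS/MS after acetonitrile quench. The GK reaction ran 30 min at room temperature in Tris pH 7.5 buffer with 4 mM MgCl2 and 6% DMSO. The 5× enzyme stock was 30 nM His-tagged human hepatic glucokinase.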
SMILES,IC50 [1] [nM],EC50 [2] [nM]
"CC(O)(c1ccc(N2CCN(S(=O)(=O)c3cccs3)C[C@@H]2CNC2COC2)cc1)C(F)(F)F (mixture of isomers) [Example 206, 1,1,1-trifluoro-2-(4-((2S)-2-((3-oxetanylamino)methyl)-4-(2-thiophenylsulfonyl)-1-piperazinyl)phenyl)-2-propanol]",248,343
"CC(O)(c1ccc(N2CCN(S(=O)(=O)c3cccs3)C[C@@H]2CN(C2COC2)S(C)(=O)=O)cc1)C(F)(F)F (mixture of isomers) [Example 207, N-3-oxetanyl-N-(((2R)-4-(2-thiophenylsulfonyl)-1-(4-(2,2,2-trifluoro-1-hydroxy-1-methylethyl)phenyl)-2-piperazinyl)methyl)methanesulfonamide]",241,257
"CN(C[C@H]1CN(S(=O)(=O)c2cccs2)CCN1c1ccc(C(C)(O)C(F)(F)F)cc1)S(C)(=O)=O (mixture of isomers) [Example 208, N-methyl-N-(((2S)-4-(2-thiophenylsulfonyl)-1-(4-(2,2,2-trifluoro-1-hydroxy-1-methylethyl)phenyl)-2-piperazinyl)methyl)methane sulfonamide]",112,234
"CC(C)N(C[C@H]1CN(S(=O)(=O)c2cccs2)CCN1c1ccc(C(C)(O)C(F)(F)F)cc1)S(=O)(=O)N(C)C (mixture of isomers) [Example 209, N,N-dimethyl-N′-(1-methylethyl)-N′-(((2R)-4-(2-thiophenylsulfonyl)-1-(4-(2,2,2-trifluoro-1-hydroxy-1-methylethyl)phenyl)-2-piperazinyl)methyl)sulfamide]",7,23
"CC(C)CS(=O)(=O)NC[C@H]1CN(S(=O)(=O)c2cccs2)CCN1c1ccc(C(C)(O)C(F)(F)F)cc1 (mixture of isomers) [Example 210, 2-methyl-N-(((2S)-4-(2-thiophenylsulfonyl)-1-(4-(2,2,2-trifluoro-1-hydroxy-1-methylethyl)phenyl)-2-piperazinyl)methyl)-1-propanesulfonamide]",507,249
"CC(C)CS(=O)(=O)N(C[C@H]1CN(S(=O)(=O)c2cccs2)CCN1c1ccc(C(C)(O)C(F)(F)F)cc1)c1ccccc1 (mixture of isomers) [Example 211, 2-methyl-N-phenyl-N-(((2R)-4-(2-thiophenylsulfonyl)-1-(4-(2,2,2-trifluoro-1-hydroxy-1-methylethyl)phenyl)-2-piperazinyl)methyl)-1-propanesulfonamide]",6,20
"CC(C)CN(C[C@H]1CN(S(=O)(=O)c2cccs2)CCN1c1ccc(C(C)(O)C(F)(F)F)cc1)S(=O)(=O)CC(F)(F)F (mixture of isomers) [Example 214, 2,2,2-trifluoro-N-(2-methylpropyl)-N-(((2S)-4-(2-thiophenylsulfonyl)-1-(4-(2,2,2-trifluoro-1-hydroxy-1-methylethyl)phenyl)-2-piperazinyl)methyl) ethanesulfonamide]",238,247
"CC(C)CN(C[C@H]1CN(S(=O)(=O)c2cccs2)CCN1c1ccc(C(C)(O)C(F)(F)F)cc1)S(=O)(=O)N(C)C (mixture of isomers) [Example 215, N,N-dimethyl-N′-(2-methylpropyl)-N′-(((2R)-4-(2-thiophenylsulfonyl)-1-(4-(2,2,2-trifluoro-1-hydroxy-1-methylethyl)phenyl)-2-piperazinyl)methyl)sulfamide]",70,70
"CC1(CN(C[C@H]2CN(S(=O)(=O)c3cccs3)CCN2c2ccc(C(C)(O)C(F)(F)F)cc2)S(C)(=O)=O)COC1 (mixture of isomers) [Example 216, N-((3-methyl-3-oxetanyl)methyl)-N-(((2S)-4-(2-thiophenylsulfonyl)-1-(4-(2,2,2-trifluoro-1-hydroxy-1-methylethyl)phenyl)-2-piperazinyl)methyl)methanesulfonamide]",172,194
"CN(C[C@H]1CN(S(=O)(=O)c2cccs2)CCN1c1ccc(C(C)(O)C(F)(F)F)cc1)S(=O)(=O)c1cccnc1 (mixture of isomers) [Example 217, N-methyl-N-(((2S)-4-(2-thiophenylsulfonyl)-1-(4-(2,2,2-trifluoro-1-hydroxy-1-methylethyl)phenyl)-2-piperazinyl)methyl)-3-pyridinesulfonamide]",407,752
"CC(O)(c1ccc(N2CCN(S(=O)(=O)c3cccs3)C[C@@H]2CN(CC2CCC2)S(C)(=O)=O)cc1)C(F)(F)F (mixture of isomers) [Example 218, N-(cyclobutylmethyl)-N-(((2S)-4-(2-thiophenylsulfonyl)-1-(4-(2,2,2-trifluoro-1-hydroxy-1-methylethyl)phenyl)-2-piperazinyl)methyl)methanesulfonamide]",24,17
"CC(O)(c1ccc(N2CCN(S(=O)(=O)c3cccs3)C[C@@H]2CSc2ccccc2F)cc1)C(F)(F)F (mixture of isomers) [Example 219, 1,1,1-trifluoro-2-(4-((2R)-2-(((2-fluorophenyl)sulfanyl)methyl)-4-(2-thiophenylsulfonyl)-1-piperazinyl)phenyl)-2-propanol]",14,25
"CC(O)(c1ccc(N2CCN(S(=O)(=O)c3cccs3)C[C@@H]2CN(Cc2ccccc2)S(C)(=O)=O)cc1)C(F)(F)F (mixture of isomers) [Example 220, N-benzyl-N-(((2S)-4-(2-thiophenylsulfonyl)-1-(4-(2,2,2-trifluoro-1-hydroxy-1-methylethyl)phenyl)-2-piperazinyl)methyl)methanesulfonamide]",3,15
"CC(O)(c1ccc(N2CCN(S(=O)(=O)c3cccs3)C[C@@H]2CN(Cc2cccnc2)S(C)(=O)=O)cc1)C(F)(F)F (mixture of isomers) [Example 221, N-(3-pyridinylmethyl)-N-(((2S)-4-(2-thiophenylsulfonyl)-1-(4-(2,2,2-trifluoro-1-hydroxy-1-methylethyl)phenyl)-2-piperazinyl)methyl)methanesulfonamide]",13,41
"CC(C)CS(=O)(=O)N(C[C@H]1CN(S(=O)(=O)c2cccs2)CCN1c1ccc(C(C)(O)C(F)(F)F)cc1)c1cccnc1 (mixture of isomers) [Example 223, 2-methyl-N-3-pyridinyl-N-(((2R)-4-(2-thiophenylsulfonyl)-1-(4-(2,2,2-trifluoro-1-hydroxy-1-methylethyl)phenyl)-2-piperazinyl)methyl)-1-propanesulfonamide]",35,86
"CC(=O)N(C[C@H]1CN(S(=O)(=O)c2cccs2)CCN1c1ccc(C(C)(O)C(F)(F)F)cc1)c1ccccc1 (mixture of isomers) [Example 224, N-phenyl-N-(((2S)-4-(2-thiophenylsulfonyl)-1-(4-(2,2,2-trifluoro-1-hydroxy-1-methylethyl)phenyl)-2-piperazinyl)methyl)acetamide]",8,27
"CC1(C)C(=O)NC(=O)N1C[C@H]1CN(S(=O)(=O)c2cccs2)CCN1c1ccc(C(C)(O)C(F)(F)F)cc1 (mixture of isomers) [Example 228, 5,5-dimethyl-1-(((2S)-4-(2-thiophenylsulfonyl)-1-(4-(2,2,2-trifluoro-1-hydroxy-1-methylethyl)phenyl)-2-piperazinyl)methyl)-2,4-imidazolidinedione]",151,312
"CC(O)(c1ccc(N2CCN(S(=O)(=O)c3cccs3)C[C@@H]2CN2CCS(=O)(=O)CC2)cc1)C(F)(F)F (mixture of isomers) [Example 85, 2-(4-((2S)-2-((1,1-dioxido-4-thiomorpholinyl)methyl)-4-(2-thiophenylsulfonyl)-1-piperazinyl)phenyl)-1,1,1-trifluoro-2-propanol]",350,475
"CC(O)(c1ccc(N2CCN(S(=O)(=O)c3ccc(N)s3)CC2)cc1)C(F)(F)F (racemic) [Example 90, 2-(4-(4-((5-amino-2-thiophenyl)sulfonyl)-1-piperazinyl)phenyl)-1,1,1-trifluoro-2-propanol]",448,836
"CC(O)(c1ccc(N2CCN(S(=O)(=O)c3ccc(N)nc3)C[C@@H]2CC2CCOCC2)cc1)C(F)(F)F (mixture of isomers) [Example 127, 2-(4-((2S)-4-((6-amino-3-pyridinyl)sulfonyl)-2-(tetrahydro-2H-pyran-4-ylmethyl)-1-piperazinyl)phenyl)-1,1,1-trifluoro-2-propanol]",55,58
